test system: fulvestrant-resistant MCF7:5C-FR cells; test: Fulvestrant-resistant breast cancer cell viability (cell proliferation) assay; type: cell-based; settings: 120 h, growth inhibition in fulvestrant-resistant MCF-7:CFR cells, 120 hrs
Procedure: For the cell proliferation assay, the fulvestrant-resistant MCF7:5C-FR cells were seeded at about 2000 to about 2500/well in 96-well plates. The next day, compounds were add to the cells at desired serial concentrations form 3 nM to 10 uM. A final 0.1% (v/v) DMSO was used as vehicle control and 1 uM JQ1 was used as positive. The cell were grown in the normal culture condition for 120 hrs. Then the Hoechst 33342 dye were add to each well at a final concentration of 5 μg/ml, and put back to the incubator at 37 C for 90 min. The plates were scanned immediately after the incubation with Celigo (Nexcelcom Biocesnse) for the fluorescence of the nuclear using DAPI channel, and the cell number was counted thought the analysis function of the Celigo software. The normalized cell number to the vehicle control was used to represent the cell proliferation. […] N.D.=Not determined.

| IC50 [nM] | Molecule |
| --- | --- |
| > 100 | CCS(=O)(=O)Nc1cc(-c2cn(CCCl)c3c(O)nccc23)cc2c1ccn2Cc1ccc(F)cc1C [Compound 81, N-(6-(1-(2-chloroethyl)-7-hydroxy-1H-pyrrolo[2,3-c]pyridin-3-yl)-1-(4-fluoro-2-methylbenzyl)-1H-indol-4-yl)ethanesulfonamide] |
| < 1000 | CCS(=O)(=O)c1cc(-c2cn(C)c3c(=O)[nH]ccc23)cc2c1ccn2C(C)(c1ccccn1)c1ccccn1 [Compound 129, 3-(1-(1,1-di(pyridin-2-yl)ethyl)-4-(ethylsulfonyl)-1H-indol-6-yl)-1-methyl-1,6-dihydro-7H-pyrrolo[2,3-c]pyridin-7-one] |
| < 1000 | CC(=O)Nc1cccc2c1cc(-c1cn(C)c3c(O)nccc13)n2[C@H](c1ccccc1)C1CCOCC1 [Compound 119, (S)-N-(2-(7-hydroxy-1-methyl-1H-pyrrolo[2,3-c]pyridin-3-yl)-1-(phenyl(tetrahydro-2H-pyran-4-yl)methyl)-1H-indol-4-yl)acetamide] |
| < 1000 | CCS(=O)(=O)Nc1cc(-c2cn(C)c3c(O)nccc23)cc2c1ncn2Cc1ccc(F)cc1 [Compound 37, N-(1-(4-fluorobenzyl)-6-(7-hydroxy-1-methyl-1H-pyrrolo[2,3-c]pyridin-3-yl)-1H-benzo[d]imidazol-4-yl)ethanesulfonamide] |
| < 1000 | CCS(=O)(=O)Nc1cc(-c2cn(C)c3c(O)nccc23)cc2c1cnn2Cc1c(C)cc(F)cc1C [Compound 33, N-(1-(4-fluoro-2,6-dimethylbenzyl)-6-(7-hydroxy-1-methyl-1H-pyrrolo[2,3-c]pyridin-3-yl)-1H-indazol-4-yl)ethanesulfonamide] |
| < 1000 | CCC(c1ccccn1)(c1ccccn1)n1c(-c2cn(C)c3c(O)nccc23)nc2c(NS(=O)(=O)CC)cccc21 [Compound 127, N-(1-(1,1-di(pyridin-2-yl)propyl)-2-(7-hydroxy-1-methyl-1H-pyrrolo[2,3-c]pyridin-3-yl)-1H-benzo[d]imidazol-4-yl)ethanesulfonamide] |
| < 1000 | CCS(=O)(=O)Nc1cccc2c1nc(-c1cn(C)c3c(O)nccc13)n2C(C)(c1ccccn1)c1ccccn1 [Compound 69, N-(1-(1,1-di(pyridin-2-yl)ethyl)-2-(7-hydroxy-1-methyl-1H-pyrrolo[2,3-c]pyridin-3-yl)-1H-benzo[d]imidaol-4-yl)ethanesulfonamide] |
| 13 | Cn1cc(-c2cc(NS(C)(=O)=O)c3ccn(C(C)(c4ccccn4)c4ccccn4)c3c2)c2cc[nH]c(=O)c21 [Compound 132, N-(1-(1,1-di(pyridin-2-yl)ethyl)-6-(1-methyl-7-oxo-6,7-dihydro-1H-pyrrolo[2,3-c]pyridin-3-yl)-1H-indol-4-yl)methanesulfonamide] |
| < 1000 | Cn1ccnc1C(C)(c1nccn1C)n1ccc2c(C(C)(C)O)cc(-c3cn(C)c4c(=O)[nH]ccc34)cc21 [Compound 110, 3-(1-(1,1-bis(1-methyl-1H-imidazol-2-yl)ethyl)-4-(2-hydroxypropan-2-yl)-1H-indol-6-yl)-1-methyl-1,6-dihydro-7H-pyrrolo[2,3-c]pyridin-7-one] |
| > 100 | CCS(=O)(=O)Nc1cc(-c2cn(C)c3c(O)nccc23)cc2c1cnn2Cc1cccc2c1ccn2C [Compound 45, N-(6-(7-hydroxy-1-methyl-1H-pyrrolo[2,3-c]pyridin-3-yl)-1-((1-methyl-1H-indol-4-yl)methyl)-1H-indazol-4-yl)ethanesulfonamide] |
| > 100 | CS(=O)(=O)Nc1cc(-c2cn(CCCl)c3c(O)nccc23)cc2c1ccn2Cc1ccc(F)cc1 [Compound 79, N-(6-(1-(2-chloroethyl)-7-hydroxy-1H-pyrrolo[2,3-c]pyridin-3-yl)-1-(4-fluorobenzyl)-1H-indol-4-yl)methanesulfonamide] |
| < 1000 | CCS(=O)(=O)Nc1cc(-c2cn(C)c3c(O)nccc23)cc2c1cnn2Cc1cccc(Cl)c1Cl [Compound 36, N-(1-(2,3-dichlorobenzyl)-6-(7-hydroxy-1-methyl-1H-pyrrolo[2,3-c]pyridin-3-yl)-1H-indazol-4-yl)ethanesulfonamide] |
| < 1000 | CS(=O)(=O)Nc1cc(-c2cn(CC(=O)CCl)c3c(O)nccc23)cc2c1ccn2Cc1ccc(F)cc1 [Compound 90, N-(6-(1-(3-chloro-2-oxopropyl)-7-hydroxy-1H-pyrrolo[2,3-c]pyridin-3-yl)-1-(4-fluorobenzyl)-1H-indol-4-yl)methanesulfonamide] |
| < 1000 | CCS(=O)(=O)Nc1cc(-c2cn(C)c3c(=O)[nH]ccc23)cc2c1ccn2C(C)(c1nccn1C)c1nccn1C [Compound 75, N-(1-(1,1-bis(1-methyl-1H-imidazol-2-yl)ethyl)-6-(7-hydroxy-1-methyl-1H-pyrrolo[2,3-c]pyridin-3-yl)-1H-indol-4-yl)ethanesulfonamide] |
| > 1000 | Cn1cc(-c2cn(CC(N)=O)c3ccc(-c4ccc(F)cc4)cc23)c2ccnc(O)c21 [Compound 16, 2-(5-(4-fluorophenyl)-3-(7-hydroxy-1-methyl-1H-pyrrolo[2,3-c]pyridin-3-yl)-1H-indol-1-yl)acetamide] |
| < 10 | CCC(c1ccccn1)(c1ccccn1)n1ccc2c(NS(=O)(=O)CC)cc(-c3cn(C)c4c(=O)[nH]ccc34)cc21 [Compound 126, N-(1-(1,1-di(pyridin-2-yl)propyl)-6-(1-methyl-7-oxo-6,7-dihydro-1H-pyrrolo[2,3-c]pyridin-3-yl)-1H-indol-4-yl)ethanesulfonamide] |
| < 1000 | CCS(=O)(=O)Nc1cc(-c2cn(C)c3c(O)nccc23)cc2c1ccn2Cc1cccc(Cl)c1Cl [Compound 47, N-(1-(2,3-dichlorobenzyl)-6-(7-hydroxy-1-methyl-1H-pyrrolo[2,3-c]pyridin-3-yl)-1H-indol-4-yl)ethanesulfonamide] |
| < 1000 | CCS(=O)(=O)Nc1cccc2c1nc(-c1cn(C)c3c(O)nccc13)n2Cc1ccc(F)cc1C [Compound 41, N-(1-(4-fluoro-2-methylbenzyl)-2-(7-hydroxy-1-methyl-1H-pyrrolo[2,3-c]pyridin-3-yl)-1H-benzo[d]imidazol-4-yl)ethanesulfonamide] |
| < 1000 | C=CC(=O)Cn1cc(-c2cc(NS(C)(=O)=O)c3ccn(Cc4ccc(F)cc4)c3c2)c2ccnc(O)c21 [Compound 88, N-(1-(4-fluorobenzyl)-6-(7-hydroxy-1-(2-oxobut-3-en-1-yl)-1H-pyrrolo[2,3-c]pyridin-3-yl)-1H-indol-4-yl)methanesulfonamide] |
| > 1000 | CNS(=O)(=O)CCc1ccc(OC)cc1C(=O)c1cn(C)c2c(O)nccc12 [Compound 15, 2-(2-(7-hydroxy-1-methyl-1H-pyrrolo[2,3-c]pyridine-3-carbonyl)-4-methoxyphenyl)-N-methylethane-1-sulfonamide] |
| < 1000 | Cc1cccc(C)c1Cn1ccc2c(C(C)(C)O)cc(-c3cn(C)c4c(=O)[nH]ccc34)cc21 [Compound 113, 3-(1-(2,6-dimethylbenzyl)-4-(2-hydroxypropan-2-yl)-1H-indol-6-yl)-1-methyl-1,6-dihydro-7H-pyrrolo[2,3-c]pyridin-7-one] |
| < 1000 | CS(=O)(=O)Nc1cc(-c2cn(CC(=O)CCl)c3c(O)nccc23)cc2c1ccn2Cc1ccccc1 [Compound 99, N-(1-benzyl-6-(1-(3-chloro-2-oxopropyl)-7-hydroxy-1H-pyrrolo[2,3-c]pyridin-3-yl)-1H-indol-4-yl)methanesulfonamide] |
| < 1000 | Cn1cc(-c2cc(C(C)(C)O)c3ccn(Cc4cccc(F)c4)c3c2)c2cc[nH]c(=O)c21 [Compound 107, 3-(1-(3-fluorobenzyl)-4-(2-hydroxypropan-2-yl)-1H-indol-6-yl)-1-methyl-1,6-dihydro-7H-pyrrolo[2,3-c]pyridin-7-one] |
| 526 | Cc1cc(F)cc(C)c1Cn1ccc2cc(NS(C)(=O)=O)cc(-c3cn(C)c4c(O)nccc34)c21 [Compound 22, N-(1-(4-fluoro-2,6-dimethylbenzyl)-7-(7-hydroxy-1-methyl-1H-pyrrolo[2,3-c]pyridin-3-yl)-1H-indol-5-yl)methanesulfonamide] |
| > 100 | CCN(C(=O)C1COC1)c1cc(-c2cn(C)c3c(=O)[nH]ccc23)cc2c1ccn2Cc1c(C)cccc1C [Compound 77, N-(1-(2,6-dimethylbenzyl)-6-(7-hydroxy-1-methyl-1H-pyrrolo[2,3-c]pyridin-3-yl)-1H-indol-4-yl)-N-ethyloxetane-3-carboxamide] |
| < 1000 | Cc1cc(F)cc(C)c1Cn1ccc2c(NS(C)(=O)=O)cc(-c3cn(C)c4c(=O)[nH]ccc34)cc21 [Compound 101, N-(1-(4-fluoro-2,6-dimethylbenzyl)-6-(1-methyl-7-oxo-6,7-dihydro-1H-pyrrolo[2,3-c]pyridin-3-yl)-1H-indol-4-yl)methanesulfonamide] |

same assay, conditions: growth inhibition in fulvestrant-resistant MCF-7:CFR cells, 120 hrs

| IC50 [nM] | Molecule |
| --- | --- |
| < 1000 | CCS(=O)(=O)Nc1cc(-c2cn(CCCl)c3c(O)nccc23)cc2c1ccn2Cc1c(C)cccc1C [Compound 84, N-(6-(1-(2-chloroethyl)-7-hydroxy-1H-pyrrolo[2,3-c]pyridin-3-yl)-1-(2,6-dimethylbenzyl)-1H-indol-4-yl)ethanesulfonamide] |
| < 100 | N-(1-benzhydryl-6-(1-methyl-7-oxo-6,7-dihydro-1H-pyrrolo[2,3-c]pyridin-3-yl)-1H-indol-4-yl)ethanesulfonamide [Compound 130] |

| Molecule | IC50 [nM] |
| --- | --- |
| O=C(c1cccc(-c2ccc(F)cc2)c1)c1cn(CCCCl)c2c(O)nccc12 [Compound 8, (1-(3-chloropropyl)-7-hydroxy-1H-pyrrolo[2,3-c]pyridin-3-yl)(4′-fluoro-[1,1′-biphenyl]-3-yl)methanone] | > 5000 |
